How the values were obtained:
[1] = target: recombinant human HDAC8 (Homo sapiens (Human), UniProt Q9BY41); experiment: HDAC8 inhibition: recombinant HDAC8 fluorometric assay; assay type: biochemical; conditions: recombinant human HDAC8, substrate Ac-Arg-His-Lys-Lys(ε-acetyl)-AMC
Procedure: A competitive inhibitory assay of HDAC8 was carried out by using recombinant HDAC8 and a commercial substrate Ac-Arg-His-Lys-Lys(ε-acetyl)-AMC.
Compounds were tested for their ability to inhibit histone deacetylase 8 using an in vitro deacetylation assay. The enzyme source for this assay was recombinant human HDAC8 protein expressed and purified from insect cells. […] The substrate consisted of a commercial product Ac-Arg-His-Lys-Lys(ε-acetyl)-AMC (substrate is available from Cayman Chemical). […] In a detailed procedure, 8 μl of HDAC8 enzyme solution (0.125 μg/μl) was transferred to assay plates (CORNING 3676). 1 μl of half-log diluted compounds were added into wells and incubated for 15 min at rt. After that, 8 μl of substrate solution was transferred to the wells and incubated for 30 min at rt. After deacetylation of the substrate by incubation with HDAC8 enzyme, subsequent exposure to a developing reagent produced a fluorophore that was directly proportional to the level of deacetylation. So 4 μl of developer regent (Cayman 10006394) was added into the wells in the assay plates and incubated for 15 min. The fluorescence signal was measured by a FlexStation3 plate reader (excitation wave length 340-360 nm; emission wave length 440-465 nm). The IC50 was calculated after normalization and curve fitting using XLfit4.0 software. Inhibition %=[Mean(top)−signal(sample)]*100/[Mean(top)−Mean(bottom)].

[2] = target: HDAC6 (Homo sapiens (Human), UniProt Q9UBN7); experiment: Tubulin acetylation cytoblot assay (A549 cells); assay type: cell-based; conditions: 17-18 h, concentration for 50% induction of acetylated tubulin, read-out: Tub-ac EC50
HDAC6, sequence (Q9UBN7 whole entry): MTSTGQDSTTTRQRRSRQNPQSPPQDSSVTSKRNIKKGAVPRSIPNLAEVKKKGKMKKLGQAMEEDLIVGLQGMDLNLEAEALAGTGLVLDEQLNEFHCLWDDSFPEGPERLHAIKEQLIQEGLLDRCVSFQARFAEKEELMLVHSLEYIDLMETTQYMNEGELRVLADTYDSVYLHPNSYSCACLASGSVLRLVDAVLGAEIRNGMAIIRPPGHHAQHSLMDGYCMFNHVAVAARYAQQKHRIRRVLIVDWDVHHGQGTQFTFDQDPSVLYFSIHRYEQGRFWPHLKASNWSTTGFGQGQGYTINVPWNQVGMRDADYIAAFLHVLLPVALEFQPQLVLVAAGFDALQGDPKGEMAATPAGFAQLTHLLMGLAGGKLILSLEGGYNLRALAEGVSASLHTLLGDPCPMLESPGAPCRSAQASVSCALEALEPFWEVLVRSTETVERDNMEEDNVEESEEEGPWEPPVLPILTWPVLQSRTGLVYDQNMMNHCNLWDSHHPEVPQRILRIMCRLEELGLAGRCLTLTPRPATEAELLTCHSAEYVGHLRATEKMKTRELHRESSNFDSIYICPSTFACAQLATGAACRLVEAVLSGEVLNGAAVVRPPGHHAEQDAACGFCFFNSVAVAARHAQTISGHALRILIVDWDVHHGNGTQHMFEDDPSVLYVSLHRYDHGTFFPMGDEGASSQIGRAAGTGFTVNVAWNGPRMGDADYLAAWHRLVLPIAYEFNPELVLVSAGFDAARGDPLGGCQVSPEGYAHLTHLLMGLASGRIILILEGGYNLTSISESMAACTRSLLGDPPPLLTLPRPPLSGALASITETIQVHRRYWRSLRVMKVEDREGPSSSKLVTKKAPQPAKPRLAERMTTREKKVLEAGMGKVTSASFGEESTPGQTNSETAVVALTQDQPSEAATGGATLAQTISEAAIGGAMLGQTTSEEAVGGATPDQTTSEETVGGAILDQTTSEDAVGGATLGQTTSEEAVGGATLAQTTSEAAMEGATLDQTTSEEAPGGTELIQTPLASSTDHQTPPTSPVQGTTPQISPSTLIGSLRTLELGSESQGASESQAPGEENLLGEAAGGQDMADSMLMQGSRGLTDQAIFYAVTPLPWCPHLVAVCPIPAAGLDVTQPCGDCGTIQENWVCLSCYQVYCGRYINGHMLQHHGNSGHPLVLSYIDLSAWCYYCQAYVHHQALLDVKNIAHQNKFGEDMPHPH
Procedure: Tubulin acetylation is a PD marker for HDAC6 inhibition. The extent of tubulin acetylation represents the inhibitory effect on HDAC6.
Novel compounds were tested for their ability to inhibit HDAC6 using a cell-based deacetylation assay. Tubulin acetylation was detected by the anti-acetylated tubulin antibody (Sigma) and horse radish peroxidase (HRP) conjugated secondary antibody (KangChen Bio. Tech.). […] 20 μl of diluted compound solution was transferred to the cell culture plate and incubated for 17-18 h. After medium removal and fixation by formaldehyde (3.7% paraformaldehyde in TBS), the cells in the plates were treated with 180 μl of −20° C. MeOH and incubated for 5 min at rt. The cell lysis was incubated with 75 μl of primary anti-acetylated tubulin antibody and secondary HRP conjugated antibody solution (1:750 anti-acetylated tubulin, 1:750 HRP conjugated anti-mouse IgG in antibody dilution buffer not containing sodium azide) for 4 h at 4° C. By adding the HRP substrate, enhanced chemiluminescence (ECL) reagent (GE Healthcare) generated luminescence corresponding to the level of tubulin acetylation. So that 75 μl of ECL was added into the wells and the luminescence from each well was immediately quantified by the plate reader. Based on the luminescence reading, the IC50s against HDAC6 of the tested compounds were calculated by plotting the curve with XLfit4.0 software. Inhibition %=[signal(sample)−Mean(bottom)]*100/[Mean(top)−Mean(bottom)]

[3] = system: p21 promoter-luciferase construct; experiment: p21 reporter gene induction in HeLa cells transfected with p21 promoter-luciferase construct; assay type: cell-based; conditions: for p21 RP3: relative gene level of p21 induced compared to MS275 at 3 μM; for p21 RP10: relative level of p21 induced compared to MS275 at 10 μM; for p21 RP30: relative level of p21 induced compared to MS275 at 30 μM
Procedure: As a surrogate for in-cell HDAC1/2/3 inhibition, p21 induction was used as a counterscreen to evaluate the selectivity of the compounds in the present invention toward HDAC6 or HDAC8.
The novel compounds of the present invention were tested for their ability to induce p21 gene expression using a reporter gene assay involving HeLa cells transfected with a p21 promoter-luciferase construct. The p21 promoter contained the Sp1/Sp3 binding site for HDAC but not the upstream p53 binding site. Briefly, the day before transfection, HeLa cells were seeded at 11,000 cells/well in a 96-well culture plate and incubated at 37° C. in 5% CO2 overnight. A transfection media was prepared prior to transfection according to the following procedure: (1) 5 μl serum-free DMEM, 0.15 μl Fugene 6 reagent, 40 ng p21-luc, 10 ng GFP were mixed gently and incubated at rt for 30 minutes; (2), then 98 μl DMEM (with 10% FBS, 1% penicillin and streptomycin) was added to the DNA: Fugene 6 reagent complex and mixed gently. For transfection, the medium was removed and replaced with 100 μl/well transfection media which was prepared according to the procedure above. After incubating the cells for 24 hours at 37° C. in 5% CO2, fresh media and test compounds were added to the wells and the cells further incubated for 15 hours at 37° C. in 5% CO2. Cells were lysed by adding 80 μl/well of a cell culture lysis reagent (Promega). […] 100 μl luciferase assay reagent (Promega) was then added to every 20 μl cell lysate for luminometer detection. […] Induction activity for specific representative compounds can be found in Table 3.

recombinant human HDAC8, sequence (Q9BY41 whole entry): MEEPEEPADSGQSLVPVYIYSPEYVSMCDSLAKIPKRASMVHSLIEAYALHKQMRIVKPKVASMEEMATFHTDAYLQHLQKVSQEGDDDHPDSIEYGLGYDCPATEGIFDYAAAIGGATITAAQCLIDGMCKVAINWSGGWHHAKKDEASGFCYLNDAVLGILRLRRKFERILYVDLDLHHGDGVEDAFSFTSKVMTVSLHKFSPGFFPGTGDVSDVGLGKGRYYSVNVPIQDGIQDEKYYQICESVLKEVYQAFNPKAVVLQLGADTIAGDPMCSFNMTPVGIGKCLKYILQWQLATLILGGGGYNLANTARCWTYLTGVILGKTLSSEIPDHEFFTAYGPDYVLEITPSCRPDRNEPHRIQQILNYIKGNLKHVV

SMILES | IC50 [1] [µM] | EC50 [2] [µM] | p21 RP3 [3] | p21 RP10 [3] | p21 RP30 [3]
O=C(NO)c1ccc2c(c1)CC(Nc1nccc(-c3cccnc3Cl)n1)CC2 (centres unmarked) [Example 30, 7-[4-(2-Chloro-pyridin-3-yl)-pyrimidin-2-ylamino]-5,6,7,8-tetrahydro-naphthalene-2-carboxylic acid hydroxyamide] | 0.51 | 0.6 | 0.40 | 0.10 | −0.03
O=C(NO)c1ccc2c(c1)CC(Nc1ccc([N+](=O)[O-])cn1)CC2 (centres unmarked) [Example 6, 7-(5-Nitro-pyridin-2-ylamino)-5,6,7,8-tetrahydro-naphthalene-2-carboxylic acid hydroxyamide] | 0.93 | 2.07 | 0.18 | 0.03 | −0.01
O=C(NO)c1ccc2c(c1)CC(NS(=O)(=O)c1ccc(Cl)cc1Cl)CC2 (centres unmarked) [Example 46, 7-(2,4-Dichloro-benzenesulfonylamino)-5,6,7,8-tetrahydro-naphthalene-2-carboxylic acid hydroxyamide] | 0.19 | 4.86 | 0.49 | 0.15 | 0.01
Cc1ccc(-c2ccnc(NC3CCc4ccc(C(=O)NO)cc4C3)n2)c(F)c1 (centres unmarked) [Example 17, 7-[4-(2-Fluoro-4-methyl-phenyl)-pyrimidin-2-ylamino]-5,6,7,8-tetrahydro-naphthalene-2-carboxylic acid hydroxyamide] | 1.1 | 2.3 | −0.56 | −0.47 | −0.45
O=C(NO)c1ccc2c(c1)CC(NC(=O)c1ccc(Cl)c(Cl)c1)CN2 (centres unmarked) [Example 58, 3-(3,4-Dichloro-benzoylamino)-1,2,3,4-tetrahydro-quinoline-6-carboxylic acid hydroxyamide] | 2.63 | 5.36 | 0.03 | −0.03 | 0.01
O=C(NO)c1ccc2c(c1)CC(NS(=O)(=O)c1ccc(F)cc1F)CC2 (centres unmarked) [Example 44, 7-(2,4-Difluoro-benzenesulfonylamino)-5,6,7,8-tetrahydro-naphthalene-2-carboxylic acid hydroxyamide] | 0.21 | 3.9 | 0.63 | 0.32 | 0.56
Cc1ccc(-c2ccnc(NC3CCc4ccc(C(=O)NO)cc4C3)n2)cn1 (centres unmarked) [Example 25, 7-[4-(6-Methyl-pyridin-3-yl)-pyrimidin-2-ylamino]-5,6,7,8-tetrahydro-naphthalene-2-carboxylic acid hydroxyamide] | 0.48 | 6.2 | 0.30 | 0.13 | 0.08
O=C(NO)c1ccc2c(c1)CC(Nc1ncc3cc(F)ccc3n1)CC2 (centres unmarked) [Example 35, 7-(6-Fluoro-quinazolin-2-ylamino)-5,6,7,8-tetrahydro-naphthalene-2-carboxylic acid hydroxyamide] | 1.78 | 0.93 | −0.86 | −0.30 | –
O=C(NO)c1ccc2c(c1)CC(NC(=O)c1ccc(Cl)cc1)CN2 (centres unmarked) [Example 55, 3-(4-Chloro-benzoylamino)-1,2,3,4-tetrahydro-quinoline-6-carboxylic acid hydroxyamide] | 2.41 | 2.69 | 0.50 | 0.13 | 0.06
O=C(NO)c1ccc2c(c1)CC(Nc1nccc(-c3ccc(Cl)nc3)n1)CC2 (centres unmarked) [Example 29, 7-[4-(6-Chloro-pyridin-3-yl)-pyrimidin-2-ylamino]-5,6,7,8-tetrahydro-naphthalene-2-carboxylic acid hydroxyamide] | 0.9 | 1.43 | 0.39 | 0.07 | −0.02
CN1CC(NS(=O)(=O)c2ccc(Cl)cc2)Cc2cc(C(=O)NO)ccc21 (centres unmarked) [Example 65, 3-(4-Chloro-benzenesulfonylamino)-1-methyl-1,2,3,4-tetrahydro-quinoline-6-carboxylic acid hydroxyamide] | 0.75 | 10.6 | 0.41 | 0.26 | 0.46
O=C(NO)c1ccc2c(c1)CC(NS(=O)(=O)c1cccc(C(F)(F)F)c1)CC2 (centres unmarked) [Example 43, 7-(3-Trifluoromethyl-benzenesulfonylamino)-5,6,7,8-tetrahydro-naphthalene-2-carboxylic acid hydroxyamid] | 0.37 | 3.85 | 0.13 | 0.08 | −0.04
O=C(NO)c1ccc2c(c1)CC(Nc1nccc(-c3ccc(N4CCOCC4)nc3)n1)CC2 (centres unmarked) [Example 31, 7-[4-(6-Morpholin-4-yl-pyridin-3-yl)-pyrimidin-2-ylamino]-5,6,7,8-tetrahydro-naphthalene-2-carboxylic acid hydroxyamide] | 0.32 | 6.7 | 0.18 | 0.19 | 0.12
O=C(NO)c1cc2c(cc1F)CCC(NS(=O)(=O)c1ccc(Cl)cc1)C2 (centres unmarked) [Example 51, 7-(4-Chloro-benzenesulfonylamino)-3-fluoro-5,6,7,8-tetrahydro-naphthalene-2-carboxylic acid hydroxyamide] | 1.28 | 5.2 | 0.20 | 0.03 | 0.00
COc1cncc(-c2ccnc(NC3CCc4ccc(C(=O)NO)cc4C3)n2)c1 (centres unmarked) [Example 27, 7-[4-(5-Methoxy-pyridin-3-yl)-pyrimidin-2-ylamino]-5,6,7,8-tetrahydro-naphthalene-2-carboxylic acid hydroxyamide] | 0.52 | 1.9 | 0.35 | 0.05 | −0.09
COc1ccc(S(=O)(=O)NC2CCc3ccc(C(=O)NO)cc3C2)cc1OC (centres unmarked) [Example 45, 7-(3,4-Dimethoxy-benzenesulfonylamino)-5,6,7,8-tetrahydro-naphthalene-2-carboxylic acid hydroxyamide] | 0.39 | 3.43 | 0.18 | 0.18 | 0.46
Cc1cc(Oc2ccccc2)nc(NC2CCc3ccc(C(=O)NO)cc3C2)n1 (centres unmarked) [Example 32, 7-(4-Methyl-6-phenoxy-pyrimidin-2-ylamino)-5,6,7,8-tetrahydro-naphthalene-2-carboxylic acid hydroxyamide] | 1.5 | 5.2 | 0.26 | 0.15 | −0.04
O=C(NO)c1ccc2c(c1)CC(NC(=O)c1cccc(Cl)c1)CN2 (centres unmarked) [Example 56, 3-(3-Chloro-benzoylamino)-1,2,3,4-tetrahydro-quinoline-6-carboxylic acid hydroxyamide] | 3.37 | 3.43 | 0.04 | 0.05 | 0.12

— patent US8716285B2, “N-hydroxy-benzamids for the treatment of cancer” (Hoffmann-La Roche Inc., priority 2010, dated 2014)
